Experimental data as given in patent publication US20030203819A1, “Synergistically acting herbicidal mixtures” (priority 1998, published 2003).

Experiments:
Assay type in all cases: in vivo
Phalaris spec. = assay: Herbicidal action in the field (post-emergence treatment); conditions: 2,4-D 500 g/ha a.s.
From the text: (§1) The mixtures according to the invention were applied pre- or post-emergence (foliar treatment). The herbicidal compounds of component B were applied in the formulation in which they are present as commercially available product.
(§2) Some of the experiments were greenhouse experiments and some were field trials on mini plots (on a site with sandy loam (pH 6.2 to 7.0) or sandy clay (pH 5.0 to 6.7) as the soil).
(§3) The harmful plants differed with regard to size and developmental state; on average, they were 5 to 20 cm long, depending on the growth habit.
(§4) The herbicidally active compounds of components A) and B) were applied in succession or jointly, in the latter case in some cases as a tank mix and in some cases as a readymix, in the form of emulsions, aqueous solutions or suspensions, the vehicle being water ([…]). In the case of the field trials, application was effected with the aid of a mobile plot sprayer.
(§5) The test period extended over 3 to 8 weeks, and the stands were also observed at later points in time.
(§6) Damage by the herbicidal compositions was evaluated with reference to a scale of 0% to 100% in comparison with untreated control plots. 0 means no damage and 100 means complete destruction of the plants.
(§7) In these examples, the value E at which only an additive effect of the individual active ingredients is to be expected was calculated by the method of S. R. Colby (Calculating synergistic and antagonistic responses of herbicide combinations, Weeds 15, 20 pp (1967).

Amaranthus retroflexus [1] = assay: Herbicidal action in the greenhouse (post-emergence treatment)
From the text: as §1, §2, §3, §4, §5, §6, §7

Abutilon theophrasti [2] = assay: as above
From the text: as §1, §2, §3, §4, §5, §6, §7

Richardia brasiliensis = assay: Herbicidal action in the field (post-emergence treatment); conditions: Bentazone 1440 g/ha a.s.
From the text: as §1, §2, §3, §4, §5, §6, §7

Digitaria sanguinalis [3] = assay: as above; conditions: Cycloxydim 100 g/ha a.s.
From the text: as §1, §2, §3, §4, §5, §6, §7

Chenopodium album = assay: as above; conditions: Cycloxydim 100 g/ha a.s.
From the text: as §1, §2, §3, §4, §5, §6, §7

Cyperus iria = assay: Herbicidal action in the greenhouse (pre-emergence treatment); conditions: Dimethenamid 62.5 g/ha a.s.
From the text: as §1, §2, §3, §4, §5, §6, §7

Digitaria sanguinalis [4] = assay: as above; conditions: Dimethenamid 125 g/ha a.s.
From the text: as §1, §2, §3, §4, §5, §6, §7

Amaranthus retroflexus [5] = assay: as above; conditions: Dimethenamid 125 g/ha a.s.
From the text: as §1, §2, §3, §4, §5, §6, §7

Sorghum halepense = assay: Herbicidal action in the field (post-emergence treatment)
From the text: as §1, §2, §3, §4, §5, §6, §7

Panicum miliaceum = assay: as above; conditions: dimethenamid 841 g/ha a.s.
From the text: as §1, §2, §3, §4, §5, §6, §7

Veronica ssp. = assay: Herbicidal action in the greenhouse (post-emergence treatment)
From the text: as §1, §2, §3, §4, §5, §6, §7

Cyperus species = assay: Herbicidal action in the field (post-emergence treatment)
From the text: as §1, §2, §3, §4, §5, §6, §7

Setaria faberi [6] = assay: as above
From the text: as §1, §2, §3, §4, §5, §6, §7

Ipomoea ssp. = assay: Herbicidal action in the greenhouse (post-emergence treatment)
From the text: as §1, §2, §3, §4, §5, §6, §7

Abutilon theophrasti [7] = assay: Herbicidal action in the field (post-emergence treatment)
From the text: as §1, §2, §3, §4, §5, §6, §7

Setaria viridis [8] = assay: as above; conditions: Sethoxydim 160 g/ha a.s.
From the text: as §1, §2, §3, §4, §5, §6, §7

Galium aparine = assay: as above
From the text: as §1, §2, §3, §4, §5, §6, §7

Sorghum bicolor = assay: as above; conditions: atrazine 840 g/ha a.s.
From the text: as §1, §2, §3, §4, §5, §6, §7

Anthemis mixta = assay: as above; conditions: carfentrazone-ethyl 30 g/ha a.s.
From the text: as §1, §2, §3, §4, §5, §6, §7

[9] = system: Ipomoea purpurea var. diversifolia; assay: as above
From the text: as §1, §2, §3, §4, §5, §6, §7

Alopecurus myosuroides [10] = assay: Herbicidal action in the greenhouse (post-emergence treatment)
From the text: as §1, §2, §3, §4, §5, §6, §7

Alopecurus myosuroides [11] = assay: Herbicidal action in the field (post-emergence treatment); conditions: fenoxaprop-ethyl 83 g/ha a.s.
From the text: as §1, §2, §3, §4, §5, §6, §7

Digitaria adscendens = assay: as above
From the text: as §1, §2, §3, §4, §5, §6, §7

Ipomoea acuminata = assay: as above
From the text: as §1, §2, §3, §4, §5, §6, §7

Setaria faberi [12] = assay: Herbicidal action in the greenhouse (post-emergence treatment); conditions: glufosinate-ammonium 31.2 g/ha a.s.
From the text: as §1, §2, §3, §4, §5, §6, §7

Echinochloa crus-galli = assay: as above
From the text: as §1, §2, §3, §4, §5, §6, §7

Geranium carolinianum = assay: Herbicidal action in the field (post-emergence treatment); conditions: glyphosate 840 g/ha a.s.
From the text: as §1, §2, §3, §4, §5, §6, §7

Bidens pilosa = assay: as above
From the text: as §1, §2, §3, §4, §5, §6, §7

Stellaria media = assay: as above
From the text: as §1, §2, §3, §4, §5, §6, §7

Setaria viridis [13] = assay: Herbicidal action in the greenhouse (post-emergence treatment); conditions: isoxaflutole 31.2 g/ha a.s.
From the text: as §1, §2, §3, §4, §5, §6, §7

Ipomoea lacunosa = assay: Herbicidal action in the field (post-emergence treatment); conditions: nicosulfuron 35 g/ha a.s.
From the text: as §1, §2, §3, §4, §5, §6, §7

Brachiaria plantaginea = assay: as above; conditions: pendimethalin 990 g/ha a.s.
From the text: as §1, §2, §3, §4, §5, §6, §7

[14] = glufosinate-ammonium 400 g/ha a.s.

Compound: O=C(O)COc1ccc(Cl)cc1Cl [2,4-D, reference compound]
- Damage (Phalaris spec.): 20%
- Damage (Amaranthus retroflexus [1]; 2,4-D 62.5 g/ha a.s.): 20%
- Damage (Abutilon theophrasti [2]; 2,4-D 62.5 g/ha a.s.): 40%

Compound: CC(C)N1C(=O)c2ccccc2NS1(=O)=O [Bentazone, bentazone, reference compound]
- Damage (Richardia brasiliensis): 77%

Compound: CCCC(=NOCC)C1=C(O)CC(C2CCCSC2)CC1=O (stereo not drawn) [Cycloxydim, cycloxydim, reference compound]
- Damage (Digitaria sanguinalis [3]): 81%
- Damage (Chenopodium album): 0%

Compound: COCC(C)N(C(=O)CCl)c1c(C)csc1C (stereo not drawn) [Dimethenamid, dimethenamid, reference compound]
- Damage (Cyperus iria): 95%
- Damage (Digitaria sanguinalis [4]): 80%
- Damage (Amaranthus retroflexus [5]): 80%
- Damage (Sorghum halepense; dimethenamid 1120 g/ha a.s.): 7%
- Damage (Panicum miliaceum): 23%
- Damage (Veronica ssp.; Dimethenamid 500 g/ha a.s. (Table 43)): 70%
- Damage (Veronica ssp.; Dimethenamid 500 g/ha a.s. (Table 45)): 70%
- pest or weed control at 500 g/ha (Amaranthus retroflexus [1]; Amaranthus retroflexus, post-emergence, Dimethenamnid 500 g/ha a.s., read-out: Damage): 10%

Compound: Cc1cc(Cl)ccc1OCC(=O)O [MCPA, reference compound]
- Damage (Cyperus species; MCPA 600 g/ha a.s.): 5%

Compound: COc1nc(NC(=O)NS(=O)(=O)c2ccccc2C(F)(F)F)nc(C(F)(F)F)n1 [N-[[[4-methoxy-6-(trifluoromethyl)-1,3,5-triazin-2-yl]amino]carbonyl]-2-(trifluoromethyl)benzenesulfonamide, reference compound]
- Damage (Setaria faberi [6]; the benzenesulfonamide (B2) 50 g/ha a.s.): 0%

Compound: O=C(O)c1c(Cl)ccc2cc(Cl)cnc12 [Quinclorac, quinclorac, reference compound]
- Damage (Ipomoea ssp.; Quinclorac 250 g/ha a.s.): 70%
- Damage (Veronica ssp.; Quinclorac 500 g/ha a.s.): 80%

Compound: CCC/C(=N\OCC)C1=C(O)CC(CC(C)SCC)CC1=O (stereo not drawn) [Sethoxydim, sethoxydim, reference compound]
- Damage (Abutilon theophrasti [7]; Sethoxydim 160 g/ha a.s.): 0%
- Damage (Setaria viridis [8]): 93%

Compound: CCOCN(C(=O)CCl)c1c(C)cccc1CC [acetochlor, reference compound]
- Damage (Abutilon theophrasti [2]; acetochlor 31.2 g/ha a.s.): 0%

Compound: O=C(O)c1cc(Oc2ccc(C(F)(F)F)cc2Cl)ccc1[N+](=O)[O-] [acifluorfen, reference compound]
- Damage (Galium aparine; acifluorfen 100 g/ha a.s.): 48%

Compound: CCNc1nc(Cl)nc(NC(C)C)n1 [atrazine, reference compound]
- Damage (Setaria faberi [6]; atrazine 1120 g/ha a.s.): 20%
- Damage (Abutilon theophrasti [7]; atrazine 1120 g/ha a.s.): 32%
- Damage (Sorghum bicolor): 27%

Compound: N#Cc1cc(Br)c(O)c(Br)c1 [bromoxynil, reference compound]
- Damage (Galium aparine; bromoxynil 470 g/ha a.s.): 84%

Compound: CCOC(=O)C(Cl)Cc1cc(-n2nc(C)n(C(F)F)c2=O)c(F)cc1Cl (stereo not drawn) [carfentrazone-ethyl, reference compound]
- Damage (Anthemis mixta): 0%
- pest or weed control at 0.9 g/ha (Amaranthus retroflexus [1]; Amaranthus retroflexus, post-emergence, read-out: Damage, carfentrazone-ethyl 0.9 g/ha a.s.): 60%

Compound: Nc1cnn(-c2ccccc2)c(=O)c1Cl [chloridazon, reference compound]
- Damage ([9]; chloridazon 1720 g/ha a.s.): 40%

Compound: CCOC(=O)/C(Cl)=C/c1cc(N2C(=O)C3=C(CCCC3)C2=O)ccc1Cl [cinidon-ethyl, reference compound]
- Damage (Galium aparine; cinidon-ethyl 7.8 g/ha a.s.): 90%

Compound: CN(C)C(=O)Nc1ccc(Cl)c(Cl)c1 [diuron, reference compound]
- Damage (Alopecurus myosuroides [10]; diuron 250 g/ha a.s.): 80%

Compound: CCOC(=O)C(C)Oc1ccc(Oc2nc3ccc(Cl)cc3o2)cc1 (stereo not drawn) [fenoxaprop-ethyl, reference compound]
- Damage (Alopecurus myosuroides [11]): 82%
- Damage (Galium aparine; fenoxaprop-ethyl 83 g/ha a.s.): 0%
- pest or weed control at 31.2 g/ha (Amaranthus retroflexus [1]; Amaranthus retroflexus, post-emergence, fenoxaprop-ethyl (title: fenoxaprop-P-ethyl) 31.2 g/ha a.s., read-out: Damage): 0%

Compound: CC(C)N(C(=O)COc1nnc(C(F)(F)F)s1)c1ccc(F)cc1 [flufenacet, reference compound]
- Damage (Digitaria adscendens; flufenacet 600 g/ha a.s.): 58%

Compound: CP(=O)(O)CCC(N)C(=O)O (stereo not drawn) [glufosinate-ammonium, reference compound]
- Damage (Digitaria adscendens; [14]): 75%
- Damage (Ipomoea acuminata; [14]): 75%
- Damage (Setaria faberi [12]): 65%
- Damage (Echinochloa crus-galli; glufosinate-ammonium 15.6 g/ha a.s.): 0%

Compound: O=C(O)CNCP(=O)(O)O [glyphosate, reference compound]
- Damage (Sorghum halepense; glyphosate 840 g/ha a.s.): 74%
- Damage (Geranium carolinianum): 97%

Compound: COC(=O)c1c(Cl)nn(C)c1S(=O)(=O)NC(=O)Nc1nc(OC)cc(OC)n1 [halosulfuron-methyl, reference compound]
- Damage (Alopecurus myosuroides [10]; halosulfuron-methyl 31.2 g/ha a.s.): 45%
- pest or weed control at 7.8 g/ha (Amaranthus retroflexus [1]; Amaranthus retroflexus, post-emergence, read-out: Damage, halosulfuron-methyl 7.8 g/ha a.s.): 80%

Compound: CC(C)C1(C)N=C(c2ncccc2C(=O)O)NC1=O (stereo not drawn) [imazapyr, reference compound]
- Damage (Ipomoea ssp.; imazapyr 62.5 g/ha a.s.): 85%
- Damage (Alopecurus myosuroides [10]; imazapyr 250 g/ha a.s.): 90%

Compound: CC(C)C1(C)N=C(c2nc3ccccc3cc2C(=O)O)NC1=O (stereo not drawn) [imazaquin, reference compound]
- Damage (Bidens pilosa; imazaquin 150 g/ha a.s.): 45%

Compound: CCc1cnc(C2=NC(C)(C(C)C)C(=O)N2)c(C(=O)O)c1 (stereo not drawn) [imazethapyr, reference compound]
- Damage (Ipomoea acuminata; imazethapyr 70 g/ha a.s.): 33%
- Damage ([9]; imazethapyr 70 g/ha a.s.): 58%

Compound: CC(C)c1ccc(NC(=O)N(C)C)cc1 [isoproturon, reference compound]
- Damage (Stellaria media; isoproturon 1000 g/ha a.s.): 94%

Compound: CS(=O)(=O)c1cc(C(F)(F)F)ccc1C(=O)c1cnoc1C1CC1 [isoxaflutole, reference compound]
- Damage (Ipomoea ssp.; isoxaflutole 62.5 g/ha a.s.): 55%
- Damage (Setaria viridis [13]): 30%

Compound: COc1cc(OC)n2nc(S(=O)(=O)Nc3c(Cl)ccc(C)c3Cl)nc2n1 [metosulam, reference compound]
- Damage (Veronica ssp.; metosulam 1.9 g/ha a.s.): 40%

Compound: CSc1nnc(C(C)(C)C)c(=O)n1N [metribuzin, reference compound]
- Damage (Cyperus species; metribuzin 200 g/ha a.s.): 50%
- Damage (Bidens pilosa; metribuzin 200 g/ha a.s.): 38%

Compound: COc1cc(OC)nc(NC(=O)NS(=O)(=O)c2ncccc2C(=O)N(C)C)n1 [nicosulfuron, reference compound]
- Damage (Ipomoea lacunosa): 39%
- pest or weed control at 1.9 g/ha (Amaranthus retroflexus [1]; Amaranthus retroflexus, post-emergence, nicosulfuron 1.9 g/ha a.s., read-out: Damage): 65%

Compound: CCC(CC)Nc1c([N+](=O)[O-])cc(C)c(C)c1[N+](=O)[O-] [pendimethalin, reference compound]
- Damage (Brachiaria plantaginea): 0%

Compound: CCCCCCCCSC(=O)Oc1cc(Cl)nnc1-c1ccccc1 [pyridate, reference compound]
- Damage (Setaria faberi [6]; pyridate 450 g/ha a.s.): 0%
- Damage (Bidens pilosa; pyridate 450 g/ha a.s.): 25%

Compound: COc1cc(OC)nc(Sc2cccc(Cl)c2C(=O)O)n1 [pyrithiobac-sodium, reference compound]
- Damage (Echinochloa crus-galli; pyrithiobac-sodium 7.8 g/ha a.s.): 10%

Compound: CS(=O)(=O)c1ccc(C(=O)C2C(=O)CCCC2=O)c(Cl)c1 [sulcotrione, reference compound]
- Damage (Ipomoea acuminata; sulcotrione 300 g/ha a.s.): 86%
- pest or weed control at 250 g/ha (Amaranthus retroflexus [1]; Amaranthus retroflexus, post-emergence, read-out: Damage, sulcotrione 250 g/ha a.s.): 45%

Compound: imazamethabenz [reference compound]
- Damage (Stellaria media; imazamethabenz 525 g/ha a.s.): 0%
